row,Structure (SMILES),melting point [°C]
1,OCc1ccc(-c2coc(-c3cn([C@H]4CN5CCC4CC5)nn3)c2)cc1,202
2,COC(=O)c1c(NC(=O)C(C)(C)C)c(Cl)cc(OC)c1OC,100 to 102
3,CC(N)c1ccc2c(c1)CCCN2C(=O)OC(C)(C)C (stereo not given),73 to 75
4,O=C(NCCCSc1ccncc1)c1cc(Br)c(Br)s1,129 to 130
5,O=C(NCCc1ccccc1F)c1c(Cl)ccc2nc(N3CCC(C(=O)O)CC3)ccc12,270 to 272
6,O=C(O)CN1C(=O)C(=Cc2cc(Cl)ccc2O)SC1=S,243 to 247
7,CCCCN(CCCC)c1ccc2cc(Cl)cnc2c1C#N,112
8,O=C(NCc1cc(C(F)(F)F)cc(C(F)(F)F)c1)c1ccccc1-c1ccccc1,86 to 87
9,O=[N+]([O-])CS(=O)(=O)c1ccc(CO)cc1,73 to 75
10,COc1ccc(CS(=O)(=O)c2cc3cc(Cl)ccc3oc2=O)cc1,224 to 226
11,CC(C)(C)c1cc(NC(=O)c2csc(-c3ccc([N+](=O)[O-])cc3)n2)cc(C(C)(C)C)c1O,262 to 264
12,COc1cc2cc(C(=O)Nc3cc(OCc4ccccc4)c4ccccc4c3CCOC(C)=O)[nH]c2c(OC)c1OC,55 to 65
13,COc1ccc(C(=CC=O)c2ccc(OC)c(OC)c2)cc1OC,129 to 130
14,CCCCC(c1cc(F)ccc1F)S(=O)c1ccc(Cl)cc1 (stereo not given),108 to 109
15,N#Cc1ccc(N2C(=O)NC3(CCCCC3)C2=O)cc1C(F)(F)F,187
16,O=C1CC2(CCCC2)CC(=O)N1CCCCN1CCN(C(c2ccc(F)cc2)c2ccc(F)cc2)CC1,165 to 169
17,CCOc1ccc2c(c1)CCC(Oc1ncnc3ccccc13)C2 (stereo not given),115 to 117
18,O=Cc1ccc2c3c1ccc1cccc(c13)C2,209 to 212
19,Nc1ccc(C#Cc2cnn3c(C4CC4)cc(-c4ccc(C(F)(F)F)cc4)nc23)cn1,228 to 231
20,CCOC(=O)c1cn(C2CC2)c2cc(F)c(F)cc2c1=O,189 to 191
21,Cc1cc(C(=O)NN)ccc1-c1ccc(C(=O)C2CN(C)CCC23COc2cc4c(cc23)NCC4)cc1 (stereo not given),130 to 135

row,Structure (SMILES),melting point [°C]
1,Nc1ccc(S(=O)C(F)(F)C(F)F)cc1F (stereo not given),67 to 69
2,CNc1nc(C)c(-c2nc3ccccc3c(=O)n2-c2ccc(Cl)cc2)s1,195 to 197
3,CC(C)C(CN=C(O)C(Cl)=C(Cl)C(=O)O)c1ccc(Cl)cc1 (stereo not given),91 to 92
4,CCOC(=O)N1CCN(C2=Nc3ccccc3Nc3ccsc32)CC1,166
5,O=C(NCc1cccc(-c2nc(=O)c3ccccc3s2)n1)C(F)(F)F,226 to 227
6,O=C(c1ccccc1)C(O)c1ccc(F)cc1 (stereo not given),108 to 109
7,CNCc1ccc2oc(-c3ccccc3C#N)c(Br)c2c1,114
8,Cn1cncc1C(O)(c1ccc(CO)cc1)c1ccc2c(c1)c(-c1cccc(Cl)c1)cc(=O)n2C (stereo not given),273
9,CS(=O)(=O)c1ncc2cc(Oc3ccccc3F)c(=O)n(-c3ccc(F)cc3)c2n1,82.3 to 91.5
10,O=C(O)C(=O)CC(=O)c1ccn(Cc2ccccc2)c1,151 to 152
11,CCNC(=O)c1c([Si](C)(C)C)ccc(CF)c1Cl,104 to 105
12,NS(=O)(=O)c1cccc(NC(=O)c2cnn3c(C(F)F)cc(-c4ccc(C(F)(F)F)c(Cl)c4)nc23)c1,272
13,O=C(NC(=O)c1c(F)cccc1F)Nc1cc(Cl)c(Oc2ccc(S(=O)(=O)c3ccc(Cl)cc3)cc2)c(Cl)c1,207 to 209
14,Cc1noc(Cc2ccccc2Nc2c(Cl)cccc2Cl)n1,93.5 to 94.5
15,CC(=O)OC1CC2CCC3C(CCC4(C)C(O)C(N5CCCCC5)CC34)C2(C)CC1N1CCCCC1 (stereo not given),183
16,COc1ccc2c(C3=CCN(C[C@H](O)COc4cccc5[nH]ccc45)CC3)c[nH]c2c1,155 to 160
17,CCCCCCCC1CCC(C(C#N)Cc2ccc(Br)cc2)CC1 (stereo not given),60 to 62
18,O=C1NC(=O)C(Cc2ccc(OCCON=Cc3ccccc3)cc2)S1 (stereo not given),126 to 129
19,COC(=O)c1cc(C(=O)c2ccc(OC)c(C(=O)OC)c2)ccc1OC,142 to 144
20,O=c1[nH]c2ccccc2c2c1CNCC2,292 to 295
21,NCCNC(=S)Nc1c(Cl)cc([N+](=O)[O-])cc1Cl,205

# The remaining lines, values ahead:
row,melting point [°C],Structure (SMILES)
1,166,CC(CN1CCN(C)CC1)OC(=O)c1c[nH]c2ccccc12 (stereo not given)
2,98 to 100,Cc1cc(SC(C)C)c(NC(=O)CCCCCSc2nc3ccccc3o2)c(SC(C)C)n1
3,233 to 235,Nc1nc2ccccc2c2c1ncn2CCSc1ccccc1
4,130 to 135,CCCN(CCC)C1Cc2cc3c(cc2C1)C(=O)N(Cc1ccccn1)C3=O
5,194 to 196,O=C(Nc1cccc(Br)c1)c1ccccc1SSc1ccccc1C(=O)Nc1cccc(Br)c1
6,135 to 137,CC(C)Cn1c(=O)n(C)c(=O)c2c1ncn2CCCO
7,132 to 134,CCCOc1ncc(C#C[Si](C)(C)C)cc1-c1nc2c(CC)nn(CCN3CCOCC3)c2c(=O)[nH]1
8,121 to 122,COc1ccc([N+](=O)[O-])cc1CO
9,53 to 56,CC(C)(C)C(=O)C1CCCS1(=O)=O (stereo not given)
10,158,Cc1ccc(N)cc1Nc1ncc(-c2ccncc2)o1
11,168,COc1ccc(N2CCNC2=O)cc1OC
12,164 to 165,O=C1O[C@@H](CN2CCC(Cc3ccc(F)cc3)CC2)CN1c1ccc(O)cc1
13,157 to 158,O=C(O)CCC(=O)c1ccc2sc3ccccc3c2c1
14,190 to 192,CCOC(=O)NNc1ccc(-c2ccc(Cl)cc2)nn1
15,159 to 160,Cc1oc(C(C)(C)C)nc1CCOc1ccc(CC(OC(C)C)C(=O)O)c2sccc12 (stereo not given)
16,191 to 194,C[C@H](CO)Nc1nc(SCc2ccno2)nc2[nH]c(=O)cnc12
17,86,CCCCCCCCCC(CC)SCCCCCCCCCCN1C(=O)CCC1=O (stereo not given)
18,175 to 176,CCCc1c(OCCOc2ccc(C(=O)O)cc2)ccc(C(C)=O)c1O
19,202,CC1C(c2ccccc2)NC(=S)N1O (stereo not given)
20,154 to 156,CCN(CC)c1ccc(C2(N(c3ccccc3)c3ccc(N(C)C)cc3)OC(=O)c3ccccc32)c(C)c1 (stereo not given)

row,melting point [°C],Structure (SMILES)
1,180,CCOc1ccc2c(c1)C(C)(c1ccccc1O)C(=O)N2S(=O)(=O)c1ccc(C(=O)NC(C)(C)C)cc1 (stereo not given)
2,138 to 140,Cc1cccc(C(=O)Nc2ccc(N3CCN(Cc4ccccc4)CC3)nc2)c1-c1ccc(C(C)C)cc1
3,100 to 102,CCOC(=O)c1oc2ccc(Cl)cc2c1O
4,217 to 219,N#CC(C(=O)N1CCOCC1)=C1Nc2ccccc2O1
5,51,COC1COC(c2ccccc2)OC1 (stereo not given)
6,170 to 174,O=C1NCCC[C@@H]1NS(=O)(=O)c1cc(F)cc(F)c1
7,143 to 144,OCc1ccnc(OCc2cn3c(Cl)cccc3n2)c1
8,192 to 194,COc1cc2c(cc1Nc1ncc(Cl)c(Nc3ccccc3OC)n1)CCOC(=O)N2C
9,108,Nc1ccc(Cl)cc1NC1CCN(Cc2ccccc2)CC1
10,80 to 81,COc1ccc2oc(-c3nc(C(C)(C)C)cs3)cc2c1
11,129 to 131,COc1ccc(COC(=O)C2=C(C3CCCO3)OC[C@@H]3[C@H](NC(c4ccccc4)(c4ccccc4)c4ccccc4)C(=O)N23)cc1 (stereo not given in full)
12,168 to 170,COc1ccc(NN=C(Sc2cc(Cl)cc(Cl)c2)C(C)=O)cc1
13,54 to 55,CCc1cc(OC)cc(=O)o1
14,125 to 126,CC(=O)NC(=O)C(Cl)Cc1ccc(OCC(C)(C)c2ccccc2)cc1 (stereo not given)
15,98 to 100,Cc1c(C)c(S(=O)(=O)C[N+](=O)[O-])c(C)c2c1OC(C)(C)CC2
16,161 to 163,O=C(NCCCCN1CCN(c2csc3cc(F)ccc23)CC1)c1ccc(F)cc1
17,216 to 218,O=C(/C=C/c1cccs1)Nc1ccc(-n2nc(C(F)(F)F)cc2C(F)(F)F)cc1
18,170 to 172,Cc1ccccc1Sc1cncc2sc(C(N)=O)cc12
19,108,CCOc1ccc(C(=O)C=Cc2ccc(SC)cc2)cc1
20,152,CCc1cccc(CC(=O)O)c1OCCCc1cn(-c2ccc(Br)cn2)nc1C(C)C

row,melting point [°C],Structure (SMILES)
1,210 to 213,Cc1c(C(=O)Nc2ccc(N3CCC(N(C)C)CC3)c(C#N)c2)cnn1-c1ccc(Cl)cc1
2,253,Cc1cc(CN2CCN(c3ccc(C(=O)NC4CC4)cc3F)CC2)cc2c1OC(C)C(=O)N2 (stereo not given)
3,97 to 98,CC1(C)NCCc2c1oc1cc(I)ccc21
4,118 to 119,O=C1OC[C@H](c2ccccc2)N1C(=O)C1C=C1
5,147 to 150,CCOc1cccc(SCC(=O)O)c1CC(=O)O
6,78 to 86,CC(C)C[C@@H](C(=O)N1CCN(C(c2ccc(F)cc2)c2ccc(F)cc2)CC1)N(Cc1ccc(C(C)(C)C)cc1)Cc1ccc(C(C)(C)C)cc1
7,99 to 100,N[C@@H](Cc1ccc(C(F)(F)F)cc1)[C@H](O)c1ccc(F)cc1F (racemic)
8,120 to 121,Nc1ccc(Cl)cc1C(O)c1ccccc1OCc1ccccc1 (stereo not given)
9,131 to 132,O=C(O)c1nc(Sc2ccccc2)ccc1Sc1ccccc1
10,169 to 173,O=[N+]([O-])c1oc2ccc(CCO)cc2c1-c1ccccc1
11,124 to 126,CCn1nc2oc(CO)c(C)c2c1C
12,88 to 90,COc1ccc(C(Cc2ccccc2)C2=C(C)N=NC2=O)cc1OC1CCCC1 (stereo not given)
13,147 to 149,C=CCOc1nc(Nc2ccc(OC)nc2)nc2c1ncn2CCCC
14,246 to 248,Cc1nc2c(c3c1[nH]c1ccccc13)C(=O)CC(c1ccccc1)C2 (stereo not given)
15,272 to 274,COc1ccc(Nc2cc(-c3ccccc3)nc3ccccc23)cc1Cl
16,277 to 278,CCc1[nH]n(C2CCCC2)c2nc(-c3cc(C)nc(-n4ccnc4)c3)nc(=O)c1-2
17,80 to 82,CSc1ccc(-c2cccc(-c3nc(C(C)C)[nH]c3-c3cccc(C)n3)c2)cc1
18,78 to 79,CCCCCCCCCCCCn1c2cc(Br)ccc2c2ccc(Br)cc21

# Reference: a melting point compilation (Tetko et al.; mined from patent text by program, amines drawn as free bases though some values may be those of a salt)
